Data: ChEMBL document CHEMBL5104140, “Bicyclic pyrimidine compounds as potent IRAK4 inhibitors” (Bioorg Med Chem Lett, 2022)

Experiments:
[1] = Clearance in rat at 1 mg/kg, iv; format: ADME, organism-based; conditions: in vivo
[2] = test system: PAD; assay: Induction of PAD activity against human A549 cells; format: toxicity, cell-based
[3] = Oral bioavailability in rat at 5 mg/kg; format: ADME, organism-based; conditions: in vivo
[4] = test system: THP-1; assay: Antiinflammatory activity against human THP-1 cells assessed as inhibition of LPS induced IL-23 production; format: functional, cell-based
[5] = Antiinflammatory activity against human dendritic cells assessed as inhibition of LPS induced IL-23 production; format: functional, cell-based; conditions: Dendritic cell
[6] = biological target: T1, Interleukin-1 receptor-associated kinase 4 (Homo sapiens, UniProt Q9NWZ3); assay: Inhibition of IRAK4 (unknown origin)
T1 sequence (Q9NWZ3 whole entry): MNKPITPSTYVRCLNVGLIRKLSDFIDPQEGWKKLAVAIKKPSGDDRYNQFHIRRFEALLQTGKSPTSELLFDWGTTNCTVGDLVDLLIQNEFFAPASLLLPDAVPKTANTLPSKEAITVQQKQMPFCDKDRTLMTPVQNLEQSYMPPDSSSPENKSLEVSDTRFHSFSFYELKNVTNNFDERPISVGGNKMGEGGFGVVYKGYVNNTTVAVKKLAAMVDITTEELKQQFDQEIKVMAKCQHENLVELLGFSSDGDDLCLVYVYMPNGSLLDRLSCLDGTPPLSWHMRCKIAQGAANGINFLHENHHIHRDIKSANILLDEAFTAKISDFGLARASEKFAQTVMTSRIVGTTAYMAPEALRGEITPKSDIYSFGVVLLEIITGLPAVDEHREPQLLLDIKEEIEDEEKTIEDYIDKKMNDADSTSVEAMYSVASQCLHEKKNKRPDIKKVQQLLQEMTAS

[7] = test system: Mus musculus; assay: Antiinflammatory activity against mouse assessed as inhibition of IL-1 beta-stimulated IL-6 expression at 75 mg/kg; format: functional
[8] = Plasma concentration in mouse at 75 mg/kg measured after 0.5 hrs; format: ADME, organism-based

SMILES	clearance [1] [mL/min/kg]	IC50 [2] [nM]	bioavailability [3] [%]	IC50 [4] [nM]	IC50 [5] [nM]	IC50 [6] [nM]	inhibition in vivo at 75 mg/kg [7] [%]	concentration at 0.5 h [8] [ng/mL]
Cn1ccc2nc(Nc3cccc(C(=O)N4CCCC4)c3)nc(N[C@H]3[C@@H](C(N)=O)[C@@H]4C=C[C@H]3C4)c21	58	9400	1	130	260	4		
NC(=O)[C@@H]1[C@H](Nc2nc(Nc3cccc(C(=O)N4CCCC4)c3)nc3[nH]cnc23)[C@H]2C=C[C@@H]1C2	180	4000		200	200	5		
NC(=O)[C@@H]1[C@H](Nc2nc(Nc3cc(C(=O)N4CCCC4)ccc3F)nc3ccsc23)[C@H]2C=C[C@@H]1C2		14000		11000		711		
O=C(c1cccc(Nc2nc(NC3C[C@@H]4CC[C@H]3C4)c3sccc3n2)c1)N1CCC(F)C1 (some centres undefined)	143	3500		4700		98		
NC(=O)[C@@H]1[C@H](Nc2nc(Nc3ccc(F)c(N4CCOCC4)c3)nc3ccsc23)[C@H]2C=C[C@@H]1C2	52	2500	23	240		95		
CN1CCN(c2cc(Nc3nc(N[C@H]4[C@@H](C(N)=O)[C@@H]5C=C[C@H]4C5)c4sccc4n3)ccn2)CC1	242	1700	< 1	80	60	7		
NC(=O)[C@@H]1[C@H](Nc2nc(Nc3ccnc(N4CCOCC4)c3)nc3ccsc23)[C@H]2C=C[C@@H]1C2	132	2700	12	80	100	10		
Cn1ncc2nc(Nc3cccc(C(=O)N4CCCC4)c3)nc(N[C@H]3[C@@H](C(N)=O)[C@@H]4C=C[C@H]3C4)c21		10000		900		4		
NC(=O)[C@@H]1[C@H](Nc2nc(Nc3ccc(C(=O)N4CCCC4)cc3)nc3ccsc23)[C@H]2C=C[C@@H]1C2		560		70	40	10		
NC(=O)[C@@H]1[C@H](Nc2nc(Nc3cc(F)cc(N4CCOCC4)c3)nc3ccsc23)[C@H]2C=C[C@@H]1C2	40	2300	24	110	230	12	30	
NC(=O)[C@@H]1[C@H](Nc2nc(Nc3cccc(C(=O)N4CCC(F)C4)c3)nc3ccsc23)[C@H]2C=C[C@@H]1C2 (some centres undefined)	82	2700	3	90	40	15		
CN1CCN(c2cc(Nc3nc(N[C@H]4[C@@H](C(N)=O)[C@@H]5C=C[C@H]4C5)c4sccc4n3)ccc2F)CC1		2000		510		50		
NC(=O)[C@@H]1[C@H](Nc2nc(Nc3cccc(C(=O)N4CCCC4)c3)nc3ccccc23)[C@H]2C=C[C@@H]1C2	102	7500		250	490	5		
Cc1n[nH]c2nc(Nc3cc(F)cc(N4CCOCC4)c3)nc(N[C@H]3[C@@H](C(N)=O)[C@@H]4C=C[C@H]3C4)c12	47	260	7	37		5		
NC(=O)[C@@H]1[C@H](Nc2nc(Nc3cccc(C(=O)N4CCCC4)c3)nc3ccoc23)[C@H]2C=C[C@@H]1C2	101	5800		220	90	3		
NC(=O)[C@@H]1[C@H](Nc2nc(Nc3ccc(OCCN4CCCC4)cc3)nc3ccsc23)[C@H]2C=C[C@@H]1C2		610		50	190	49		
NC(=O)[C@@H]1[C@H](Nc2nc(Nc3ccnc(N4CCCC4)c3)nc3ccsc23)[C@H]2C=C[C@@H]1C2		2600		200		206		
CN1CCN(c2cc(F)cc(Nc3nc(N[C@H]4[C@@H](C(N)=O)[C@@H]5C=C[C@H]4C5)c4sccc4n3)c2)CC1	99	1500	16	80	100	12		

SMILES	clearance [1] [mL/min/kg]	IC50 [2] [nM]	bioavailability [3] [%]	IC50 [4] [nM]	IC50 [5] [nM]	IC50 [6] [nM]	inhibition in vivo at 75 mg/kg [7] [%]	concentration at 0.5 h [8] [ng/mL]
NC(=O)[C@@H]1[C@H](Nc2nc(Nc3ccc(C(=O)N4CCOCC4)cc3)nc3ccsc23)[C@H]2C=C[C@@H]1C2		1100		70	30	14		
NC(=O)[C@@H]1[C@H](Nc2nc(Nc3cc(F)cc(N4CCOCC4)c3)nc3ccn(C(F)F)c23)[C@H]2C=C[C@@H]1C2	10	1000	37	220	260	9	0	
Cc1c[nH]c2nc(Nc3cccc(C(=O)N4CCCC4)c3)nc(N[C@H]3[C@@H](C(N)=O)[C@@H]4C=C[C@H]3C4)c12		80		20		8		
NC(=O)[C@@H]1[C@H](Nc2nc(Nc3cccc(C(=O)N4CCCC4)c3)nc3ncsc23)[C@H]2C=C[C@@H]1C2	105	4000		280	7300	3		
NC(=O)[C@@H]1[C@H](Nc2nc(Nc3ccc(F)c(C(=O)N4CCCC4)c3)nc3ccsc23)[C@H]2C=C[C@@H]1C2	92	8000		270	80	3		
NC(=O)[C@@H]1[C@H](Nc2nc(Nc3cc(F)cc(C(=O)N4CCCC4)c3)nc3ccsc23)[C@H]2C=C[C@@H]1C2	141	1800		60	50	2		
NC(=O)[C@@H]1[C@H](Nc2nc(Nc3cc(F)cc(N4CCOCC4)c3)nc3ncsc23)[C@H]2C=C[C@@H]1C2		7500		2600		18		
NC(=O)[C@H]1CCC[C@H]1Nc1nc(Nc2cccc(C(=O)N3CCCC3)c2)nc2ccsc12	104	> 100000		260	990	17		
NC(=O)[C@@H]1[C@H](Nc2nc(Nc3cccc(C(=O)N4CCCC4)c3)nc3cn[nH]c23)[C@H]2C=C[C@@H]1C2		> 100000		9400		17		
NC(=O)[C@@H]1[C@H](Nc2nc(Nc3cccc(C(=O)N4CCOCC4)c3)nc3ccsc23)[C@H]2C=C[C@@H]1C2	113	4900		150	80	6		
NC(=O)[C@@H]1[C@H](Nc2nc(Nc3cccc(C(=O)N4CCCC4)c3)nc3cc[nH]c23)[C@H]2C=C[C@@H]1C2		> 100000		3800	1400	6		
NC(=O)c1ccccc1Nc1nc(Nc2cccc(C(=O)N3CCCC3)c2)nc2ccsc12	56	6400		240	1500	19		
NC(=O)[C@@H]1[C@H](Nc2nc(Nc3cccc(C(=O)N4CCCC4)c3)nc3ccn(C(F)F)c23)[C@H]2C=C[C@@H]1C2	88	1500	8	130	40	2	0	410
CC(C)n1ncc2ccc(Nc3nc(N[C@H]4[C@@H](C(N)=O)[C@@H]5C=C[C@H]4C5)c4c(ccn4C)n3)cc21		3300		500	1300	4.1		
Cc1n[nH]c2nc(Nc3cccc(C(=O)N4CCCC4)c3)nc(N[C@H]3[C@@H](C(N)=O)[C@@H]4C=C[C@H]3C4)c12	63	1600	27	80	90	3	0	65
NC(=O)[C@@H]1[C@H](Nc2nc(Nc3cccc(C(=O)N4CCCC4)c3)nc3[nH]ncc23)[C@H]2C=C[C@@H]1C2	124	5800		290	480	4		
NC(=O)[C@@H]1[C@H](Nc2nc(Nc3cccc(C(=O)N4CCCC4)c3)nc3[nH]ccc23)[C@H]2C=C[C@@H]1C2	100	420		40	50	11		
CC(C)n1ccc2nc(Nc3ccc4cnn(C(C)C)c4c3)nc(N[C@H]3[C@@H](C(N)=O)[C@@H]4C=C[C@H]3C4)c21		2600		420	920	2.7		
